Data: US9676760B2, “Fused heterocyclic compounds as ion channel modulators” (Gilead Sciences, Inc., priority 2011, dated 2017)

Biological target: wild-type human cardiac sodium channel, hNav1.5 (Homo sapiens, UniProt Q14524)
Test: Late INa screening assay (QPatch whole cell patch clamp, HEK293)
Format: cell-based
Conditions: 10 μM Tefluthrin activating late INa
Description: The late sodium current (Late INa) and peak sodium current (Peak INa) assays are performed on an automated electrophysiology platform, QPatch 16× (Sophion Bioscience, Copenhagen, Denmark), which uses the whole cell patch clamp technique to measure currents through the cell membrane of up to 16 cells at a time. The assay uses an HEK293 (human embryonic kidney) cell line heterologously expressing the wild-type human cardiac sodium channel, hNav1.5, purchased from Millipore (Billerica, Mass.). No beta subunits were coexpressed with the Na channel alpha subunit. Cells are maintained with standard tissue culture procedures and stable channel expression is maintained with 400 μg/mL Geneticin in the culture medium. Cells isolated for use on QPatch are incubated for 5 minutes in Detachin 1×(Genlantis, San Diego, USA) at 37° C. to ensure that 80-90% of the cells are single and not part of a cell cluster. Experiments are carried out at 23-25° C.
For both the Late INa and Peak INa assays, series resistance compensation is set to 100% and series resistance and whole-cell compensation are performed automatically. Currents are digitized at 25 kHz and low-pass filtered at 12 kHz and 10 kHz for the late and peak INa assays, respectively. Currents through open sodium channels are automatically recorded and stored in the Sophion Bioscience Oracle database (Sophion Bioscience, Copenhagen, Denmark). Analysis is performed using QPatch Assay and database software and data are compiled in Excel.
Compound stocks are routinely made by the Gilead Sample Bank in plastic vials to 10 mM in dimethyl sulfoxide (DMSO). In some cases, when compounds are not soluble in DMSO, they are made in 100% ethanol. Stocks are sonicated as necessary. The extracellular solution for screening Late INa is composed of: 140 mM NaCl, 4 mM KCl, 1.8 mM CaCl2, 0.75 mM MgCl2 and 5 mM HEPES with pH adjusted to 7.4 using NaOH. The intracellular solution used to perfuse the inside of the cells for both the Late INa and Peak INa assays contains: 120 mM CsF, 20 mM CsCl, 5 mM EGTA, 5 mM HEPES and pH adjusted to 7.4 with CsOH. Compounds are diluted in extracellular solution to 1 μM in glass vials and then transferred to glass well plates before robotic addition to the cells. The 0 mM Na extracellular solution (0Na-ECF) used at the end of each experiment for the Late INa and Peak INa assays to measure baseline current contains: 140 mM N-methyl-D-glucamine; 4 mM KCl; 1.8 mM CaCl2; 0.75 mM MgCl2; 5 mM HEPES and pH was adjusted to 7.4 with HCl.
For the Late INa assay, sodium channels are activated every 10 seconds (0.1 Hz) by depolarizing the cell membrane to −20 mV for 250 milliseconds (ms) from a holding potential of −120 mV. In response to a −20 mV voltage step, typical hNav1.5 sodium currents activate rapidly to a peak negative current and then inactivate nearly completely within 3-4 ms.
Compounds were tested to determine their activity in blocking the late sodium current. Late INa was generated by adding 10 μM Tefluthrin (pyrethroid) to the extracellular solution while recording Na currents. […] ATX-II and tefluthrin occupy distinct, non-overlapping binding sites and modify Na^+ channel function differently to increase late INa. […] After establishing the whole cell recording configuration, late INa activator is added to each well 4 times over a 16-17 minute period so that the late component of the Na current reaches a stable value.
Results are reported as percent block of late INa.

Sequence of wild-type human cardiac sodium channel, hNav1.5 (Q14524 whole entry): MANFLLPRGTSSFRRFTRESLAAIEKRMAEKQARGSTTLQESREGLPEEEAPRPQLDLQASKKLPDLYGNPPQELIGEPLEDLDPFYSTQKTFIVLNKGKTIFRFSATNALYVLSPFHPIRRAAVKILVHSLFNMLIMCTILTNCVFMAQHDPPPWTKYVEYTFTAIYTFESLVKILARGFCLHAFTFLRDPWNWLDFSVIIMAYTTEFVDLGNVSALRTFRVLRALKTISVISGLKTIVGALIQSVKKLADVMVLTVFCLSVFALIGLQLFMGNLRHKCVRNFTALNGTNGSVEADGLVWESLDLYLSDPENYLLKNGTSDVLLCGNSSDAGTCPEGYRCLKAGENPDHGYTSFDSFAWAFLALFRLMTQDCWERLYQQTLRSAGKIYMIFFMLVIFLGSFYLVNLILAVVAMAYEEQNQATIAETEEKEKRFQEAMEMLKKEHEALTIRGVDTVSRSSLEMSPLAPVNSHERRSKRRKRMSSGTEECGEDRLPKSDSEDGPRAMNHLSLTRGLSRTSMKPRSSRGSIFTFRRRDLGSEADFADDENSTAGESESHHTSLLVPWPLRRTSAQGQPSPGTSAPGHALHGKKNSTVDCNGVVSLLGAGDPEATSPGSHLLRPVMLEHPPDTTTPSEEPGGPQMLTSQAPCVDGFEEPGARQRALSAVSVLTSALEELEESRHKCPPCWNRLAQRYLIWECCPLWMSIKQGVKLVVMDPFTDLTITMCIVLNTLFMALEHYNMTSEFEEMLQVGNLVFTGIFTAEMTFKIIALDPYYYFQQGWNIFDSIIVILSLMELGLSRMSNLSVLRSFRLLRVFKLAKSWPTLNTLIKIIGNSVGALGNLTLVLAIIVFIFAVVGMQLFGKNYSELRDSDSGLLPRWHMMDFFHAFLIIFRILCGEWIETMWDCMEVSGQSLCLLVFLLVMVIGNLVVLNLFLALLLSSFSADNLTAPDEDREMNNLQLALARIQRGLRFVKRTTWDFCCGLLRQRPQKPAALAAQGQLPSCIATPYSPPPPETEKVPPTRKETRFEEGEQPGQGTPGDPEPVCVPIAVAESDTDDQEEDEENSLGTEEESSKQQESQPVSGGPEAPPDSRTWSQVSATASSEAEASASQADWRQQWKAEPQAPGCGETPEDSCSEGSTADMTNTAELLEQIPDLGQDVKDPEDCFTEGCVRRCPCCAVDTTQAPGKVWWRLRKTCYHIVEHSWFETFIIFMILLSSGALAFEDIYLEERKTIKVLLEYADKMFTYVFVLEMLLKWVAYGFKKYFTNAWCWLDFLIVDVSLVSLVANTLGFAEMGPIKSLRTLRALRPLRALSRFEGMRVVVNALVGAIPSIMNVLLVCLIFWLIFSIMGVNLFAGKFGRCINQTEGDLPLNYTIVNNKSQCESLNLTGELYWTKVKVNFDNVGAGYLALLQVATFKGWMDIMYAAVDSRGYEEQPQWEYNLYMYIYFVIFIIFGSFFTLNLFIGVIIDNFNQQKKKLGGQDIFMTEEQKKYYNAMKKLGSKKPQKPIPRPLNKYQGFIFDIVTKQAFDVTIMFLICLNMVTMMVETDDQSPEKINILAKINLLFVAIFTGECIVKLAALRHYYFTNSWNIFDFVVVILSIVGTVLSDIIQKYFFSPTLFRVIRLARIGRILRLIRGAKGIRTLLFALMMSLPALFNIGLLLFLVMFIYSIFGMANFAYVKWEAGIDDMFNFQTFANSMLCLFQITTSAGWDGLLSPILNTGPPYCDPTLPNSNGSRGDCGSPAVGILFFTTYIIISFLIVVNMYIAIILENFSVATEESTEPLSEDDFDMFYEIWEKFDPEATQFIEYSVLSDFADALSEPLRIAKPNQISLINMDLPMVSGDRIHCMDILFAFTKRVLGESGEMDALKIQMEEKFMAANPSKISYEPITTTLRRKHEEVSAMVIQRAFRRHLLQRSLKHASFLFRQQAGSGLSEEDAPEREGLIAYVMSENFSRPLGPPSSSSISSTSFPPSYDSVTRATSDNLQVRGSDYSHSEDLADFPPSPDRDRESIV

Row | SMILES | inhibited (or reduced) the late sodium current [%]
1 | O=C1c2cc(-c3ccc(C(F)(F)F)cc3F)ccc2OCCN1Cc1ncccn1 [Compound 11-105] | 45

Same assay, conditions: HEK293, percent block of late INa; compound at 1 μM; 10 μM Tefluthrin; read-out: Late INa 1 μM

Row | SMILES | inhibition at 1 µM [%]
2 | CC(C)(C)C1CC=C(c2ccc3c(c2)C(=O)N(Cc2ncccn2)CCO3)CC1 (stereo not drawn) [Compound V-1, 7-(4-tert-butylcyclohex-1-enyl)-4-(pyrimidin-2-ylmethyl)-3,4-dihydrobenzo[f][1,4]oxazepin-5(2H)-one] | 24
3 | O=C1c2cc(C3=CCCCC3)ccc2OCCN1Cc1ncccn1 [Compound V-3, 7-cyclohexenyl-4-(pyrimidin-2-ylmethyl)-3,4-dihydrobenzo[f][1,4]oxazepin-5(2H)-one] | 23
4 | O=C1c2cc(-c3ccc(C(F)(F)F)cc3)ccc2-n2ccnc2CN1Cc1ccccc1 [Compound X-12, 5-benzyl-8-(4-(trifluoromethyl)phenyl)-4H-benzo[f]imidazo[1,2-a][1,4]diazepin-6(5H)-one] | 26
5 | CC1(CN2CCOc3ccc(-c4ccc(OC(F)(F)F)cc4)cc3C2=O)COC1 [II-1, 4-((3-methyloxetan-3-yl)methyl)-7-(4-(trifluoromethoxy)phenyl)-3,4-dihydrobenzo[f][1,4]oxazepin-5(2H)-one] | 25
6 | O=C1c2cc(-c3ccc(OC(F)(F)F)cc3)ccc2OCCN1CCN1CCCC1 [II-3, 4-(2-(pyrrolidin-1-yl)ethyl)-7-(4-(trifluoromethoxy)phenyl)-3,4-dihydrobenzo[f][1,4]oxazepin-5(2H)-one] | 15
7 | O=C1c2cc(-c3ccc(OC(F)(F)F)cc3)ccc2OCCN1Cc1nnc(C2CCC2)o1 [II-4, 4-((5-cyclobutyl-1,3,4-oxadiazol-2-yl)methyl)-7-(4-(trifluoromethoxy)phenyl)-3,4-dihydrobenzo[f][1,4]oxazepin-5(2H)-one] | 30
8 | O=C1c2cc(-c3ccc(OC(F)(F)F)cc3)ccc2OCCN1Cc1ccc2c(c1)OCCO2 [II-5, 4-((2,3-dihydrobenzo[b][1,4]dioxin-6-yl)methyl)-7-(4-(trifluoromethoxy)phenyl)-3,4-dihydrobenzo[f][1,4]oxazepin-5(2H)-one] | 26
9 | O=C1c2cc(-c3ccc(OC(F)(F)F)cc3)ccc2OCCN1CC(F)F [II-6, 4-(2,2-difluoroethyl)-7-(4-(trifluoromethoxy)phenyl)-3,4-dihydrobenzo[f][1,4]oxazepin-5(2H)-one] | 16
10 | O=C1c2cc(-c3ccc(C(F)(F)F)cc3)ccc2OC[C@H]2CN(Cc3ncccn3)CCN12 [II-8, (R)-2-(pyrimidin-2-ylmethyl)-8-(4-(trifluoromethyl)phenyl)-3,4,12,12a-tetrahydro-1H-benzo[f]pyrazino[2,1-c][1,4]oxazepin-6(2H)-one] | 21
11 | COCCN1CCOc2ccc(-c3ccc(OC(F)(F)F)cc3)cc2C1=O [II-11, 4-(2-methoxyethyl)-7-(4-(trifluoromethoxy)phenyl)-3,4-dihydrobenzo[f][1,4]oxazepin-5(2H)-one] | 23
12 | C[C@H]1COc2ccc(-c3ccc(C(F)(F)F)cc3)cc2C(=O)N1Cc1ncccn1 [II-12, (S)-3-methyl-4-(pyrimidin-2-ylmethyl)-7-(4-(trifluoromethyl)phenyl)-3,4-dihydrobenzo[f][1,4]oxazepin-5(2H)-one] | 21
13 | C[C@@H]1COc2ccc(-c3ccc(C(F)(F)F)cc3)cc2C(=O)N1Cc1ncccn1 [II-13, (R)-3-methyl-4-(pyrimidin-2-ylmethyl)-7-(4-(trifluoromethyl)phenyl)-3,4-dihydrobenzo[f][1,4]oxazepin-5(2H)-one] | 18
14 | O=C1c2cc(-c3ccc(OC(F)(F)F)cc3)ccc2OCCN1Cc1ccc(C(F)(F)F)nc1 [II-16, 7-(4-(trifluoromethoxy)phenyl)-4-((6-(trifluoromethyl)pyridin-3-yl)methyl)-3,4-dihydrobenzo[f][1,4]oxazepin-5(2H)-one] | 19
15 | C[C@@H]1COc2ccc(-c3ccc(C(F)(F)F)cc3)cc2C(=O)N1 [II-19, (R)-3-methyl-7-(4-(trifluoromethyl)phenyl)-3,4-dihydrobenzo[f][1,4]oxazepin-5(2H)-one] | 21
